Some test systems named below: SK-OV3 (ovarian cancer); MES-SA (uterine cancer); MCF (breast cancer); A-431 (vulvar cancer).
Assay in all cases: In vitro cytotoxicity against human cancer cell lines
What all share (conditions): read-out: In vitro cytotoxicities, IC50

Each structure is given as a SMILES string.

What is called IC50 is the point on the concentration scale where inhibition reaches its midpoint. Take `N.N.O=C([O-])C1(C(=O)[O-])CCC1.[Pt+2]` [Carboplatin, carboplatin]: the IC50 came to 76.5 µM in the series on SK-OV3 (ovarian cancer), 48 µM in the series on MES-SA (uterine cancer), 48 µM in the series with MCF (breast cancer) and 45.9 µM with A-431 (vulvar cancer).
